Measurements published in patent US4753928A, “Process for obtaining sexual products from mammals suitable for natural or artificial fertilization” (INNOFINANCE Altalanos Innovacios Pengintezet, priority 1985, dated 1988).
Where a SMILES comes first, the peptide text is derived from it. [ ]: non-standard residue; d: D form. pGlu = O=C1CC[C@@H](C(=O)O)N1

How the values were obtained:
female lion = format: in vivo
Experimental: In our process an intact, fertile female lion belonging to a Zoo was treated, a lioness of 200 kg body weight, which has given litter five times in its life already. Treatments took place twice in every 3 weeks, using D-[…], […] -GnRH analogue. Treatment was timed in such a way that a 50 μg dose was follwed by a 500 μg dose, than a 3-week pause followed. Treatment was carried out with the already mentioned three weeks interval from commencement of oestrus (month of April) until 50 days following end of oestrus typical of the species (August).

barren chinchillas = assay: Treatment of chinchilla barren for prolonged time; format: in vivo
Experimental: Twenty chinchillas barren for at least two years were treated twice daily for three days with 10 μg each of D-Phe^6, Gln^8 -GnRH analogue through intraperitoneal injection. On the 4th day the animals were injected with 75 μg of GnRH analogue, then they were put together with the male. 12 of the Chinchillas gave birth within 4 months. Parallel with the above treatment, 3 animals barren for more than 2 years having very valuable fur as "black" mutant chinchillas were treated twice daily for three days with 10 μg each of D-Phe^6, Gln^8 -GnRH analogue, administered through peritoneal injection. The animals were injected on the 4th day with 75 μg of GnRH analogue, then, as customary, were put together with the male.

red fox males = assay: Inducing spermiogenesis of red fox in seasonal oligospermia; format: in vivo, Vulpes vulpes
Text: We have attempted to induce spermiogenesis of red fox males kept in Zoo and being in seasonal oligospermia with the aim that pure bred silver and blue foxes kept under farming scale conditions might be inseminated for the production of high-quality hybrid furs. […] Between unoestrus of the various sub-species is a difference of several months (red fox: January; blue fox: April and May). Results of the test were compared to population being in seasonal unoestrus where the average quantity of ejaculate was 2 ml, density 3 and motility 50-60%. This was taken as physiological value. During the test 5 sexually mature red fox males of 8 kg average weight were treated in the month of April, twice weekly with 1, 5, 10, and 50 μg doses of D-Phe^6, Gln^8 -GnRH analogue for seven weeks. On the third week following commencement of treatment sperm sample was taken. In the sample sperm count was 70% of the physiological value, and the number of degenerated sperm was over 40%. Most of the deformed forms were of young formation (plasma droplet of neck and middle part). […] (Males were separated from females, thus they had no opportunity to copulate.) Sperm samples were put into groups according to quality, then put into deep freeze. […] By ejaculating the 5 foxes once each, 56 doses of sperms suitable for fertilizing were obtained. In this way industrial technology service was provided for the production of quality furs.

[1] = tested on: primordial follicles of infant domestic female cat; assay: Stimulating primordial follicles in infant domestic female cat; format: in vivo, Felis cattus domesticus; conditions: 0.1 μg i.m. three times daily for three days
Experimental: 5 kittens of 0.3 kg weight and being 45 days old were treated with D-Phe^6, Gln^8 -GnRH analogue in such a way that under narcosis the left-side ovary was removed. Thereafter the medium was treated for three days, three times daily, with a 4-hour time interval between treatments. Treatment was carried out nine times in all and every instance a 0.1 μg dose of the analogue was used. The active ingredient was suspended in normal saline solution and propyleneglycol and it was administered intramuscularly. After treatment remaining ovaries were removed, evaluated visually, then after fixing hystological examination was performed. Visually both ovaries were butter-yellow, looked homogeneous, but the treated ovary was slightly enlarged.

CC(C)C[C@H](NC(=O)[C@@H](Cc1ccccc1)NC(=O)[C@H](Cc1ccc(O)cc1)NC(=O)[C@H](CO)NC(=O)[C@H](Cc1c[nH]c2ccccc12)NC(=O)[C@H](Cc1c[nH]cn1)NC(=O)[C@@H]1CCC(=O)N1)C(=O)N[C@@H](CCC(N)=O)C(=O)N1CCC[C@H]1C(=O)NCC(N)=O [D-Phe^6, Gln^8 -GnRH analogue, D-Phe^6, Gln^8 -GnRH] ([pGlu]HWSY[dF]LQPG-NH2)
pregnancy during treatment (contraception) (female lion; 50 μg followed by 500 μg, every 3 weeks, April to August, regular copulation): did not become pregnant | behaviour and appearance during treatment (female lion; in vivo): showed no irregularity either in its behaviour or in its appearance | black mutant chinchillas that gave birth within four months (barren chinchillas; 3 animals barren >2 years, same treatment): all three animals gave birth to young ones | chinchillas that gave birth within 4 months (barren chinchillas; of twenty barren ≥2 years, 10 μg twice daily 3 days i.p., 75 μg on 4th day): 12 | doses of sperms suitable for fertilizing obtained (red fox males; 5 foxes ejaculated once each): 56 | density of ejaculate (red fox males; 7 weeks): 3 | sperm motility (red fox males; 7 weeks, physiological value 50-60%): 65% | motility after remelting (red fox males; after dilution and deep freeze at -196° C.): 45% | degenerated sperm (red fox males; third week): over 40% | sperm count relative to the physiological value (red fox males; third week, twice weekly 1, 5, 10 and 50 μg doses): 70% | follicles which started to grow in treated ovary [1]: many hundreds of
